Patent US20260198493A1, “HYDRAZIDE COMPOUND AND AGRICULTURAL/HORTICULTURAL FUNGICIDE” (Nippon Soda Co., Ltd., priority 2022, published 2026)

Legend:
Botrytis cinerea [1] = format: cell-based; conditions: 120 h, 25 ppm by volume, Vogel medium, 20° C., five days, dark, read-out: growth inhibition ratio
Fusarium graminearum = assay: microbe, parasite or virus in culture; format: cell-based; conditions: 96 h, read-out: growth inhibition ratio
Botrytis cinerea [2] = assay: Control test of cucumber gray mold (sprayed young cucumber seedlings); format: in vivo; conditions: 96 h, four days after inoculation; for pest or weed control at 25 ppm: 25 ppm by mass spray; for pest or weed control at 125 ppm: 125 ppm by mass spray
Procedure: Then, the drug liquid was sprayed onto young cucumber seedlings cultivated in a nursery pot (variety “Jihai”-based, cotyledon stage), and then air-dried. […] They were left still in a moist room at 20° C. Four days after inoculation, leaves of the young cucumber seedlings were visually observed, and the control value was calculated from the lesion area ratio in accordance with the following equation. [formula]

Venturia inaequalis = assay: Control test of apple scab disease (sprayed young apple seedlings); format: in vivo; conditions: 125 ppm by mass spray, 12 to 14 days after inoculation
[3] = test system: Erysiphe graminis f.sp.tritici; assay: Control test of wheat powdery mildew disease (sprayed young wheat seedlings); format: in vivo; conditions: Blumeria graminis, 144 h, 125 ppm by mass spray, six days after inoculation
Colletotrichum acutatum = assay: Fungicidal effect test against fungi causing apple anthracnose; conditions: 96 h, read-out: growth inhibition ratio
Glomerella cingulata = assay: Fungicidal effect test against fungi causing grape ripe rot disease; conditions: Colletotrichum gloeosporioides, 72 h, read-out: growth inhibition ratio

COC(=O)N(Cc1ccc(C)cc1Cl)NC(=O)c1c(C)cnnc1Oc1cccc(C2CC2)c1F [b-177]
≥ 75%: inhibition of growth at 25 ppm (Botrytis cinerea [1]) | inhibition of growth at 25 ppm (Fusarium graminearum) | pest or weed control at 25 ppm (Botrytis cinerea [2]) | pest or weed control at 125 ppm (Botrytis cinerea [2]) | pest or weed control at 125 ppm (Venturia inaequalis) | pest or weed control at 125 ppm [3] | inhibition of growth at 25 ppm (Colletotrichum acutatum) | inhibition of growth at 25 ppm (Glomerella cingulata)

COC(=O)N(Cc1ccc(C)cc1Cl)NC(=O)c1c(C)cncc1Oc1cccc(C2CC2)c1 [b-178]
≥ 75%: inhibition of growth at 25 ppm (Botrytis cinerea [1]) | inhibition of growth at 25 ppm (Fusarium graminearum) | pest or weed control at 25 ppm (Botrytis cinerea [2]) | pest or weed control at 125 ppm (Botrytis cinerea [2]) | pest or weed control at 125 ppm (Venturia inaequalis) | pest or weed control at 125 ppm [3] | inhibition of growth at 25 ppm (Colletotrichum acutatum) | inhibition of growth at 25 ppm (Glomerella cingulata)

Cc1ccc(CN(NC(=O)c2cc(C)nnc2Oc2cccc(C3CC3)c2F)C(=O)OC2CC2)c(C)c1 [b-184, Cyclopropyl 2-(3-(3-cyclopropyl-2-fluorophenoxy)-6-methylpyridazine-4-carbonyl)-1-(2,4-dimethylbenzyl)hydrazine-1-carboxylate]
≥ 75%: inhibition of growth at 25 ppm (Botrytis cinerea [1]) | inhibition of growth at 25 ppm (Fusarium graminearum) | pest or weed control at 25 ppm (Botrytis cinerea [2]) | pest or weed control at 125 ppm (Botrytis cinerea [2]) | pest or weed control at 125 ppm (Venturia inaequalis) | pest or weed control at 125 ppm [3] | inhibition of growth at 25 ppm (Colletotrichum acutatum) | inhibition of growth at 25 ppm (Glomerella cingulata)

COC(=O)N(Cc1ccc(C)cc1C)NC(=O)c1ccncc1Oc1cccc(Cl)c1F [b-187]
≥ 75%: inhibition of growth at 25 ppm (Botrytis cinerea [1]) | inhibition of growth at 25 ppm (Fusarium graminearum) | pest or weed control at 25 ppm (Botrytis cinerea [2]) | pest or weed control at 125 ppm (Botrytis cinerea [2]) | pest or weed control at 125 ppm (Venturia inaequalis) | pest or weed control at 125 ppm [3] | inhibition of growth at 25 ppm (Colletotrichum acutatum) | inhibition of growth at 25 ppm (Glomerella cingulata)

COC(=O)N(Cc1ccc(C)cc1C)NC(=O)c1c(C)cnnc1Oc1cccc(Cl)c1F [b-191]
≥ 75%: inhibition of growth at 25 ppm (Botrytis cinerea [1]) | inhibition of growth at 25 ppm (Fusarium graminearum) | pest or weed control at 25 ppm (Botrytis cinerea [2]) | pest or weed control at 125 ppm (Botrytis cinerea [2]) | pest or weed control at 125 ppm (Venturia inaequalis) | pest or weed control at 125 ppm [3] | inhibition of growth at 25 ppm (Colletotrichum acutatum) | inhibition of growth at 25 ppm (Glomerella cingulata)

Cc1ccc(CN(NC(=O)c2ccncc2Oc2cccc(C3CC3)c2F)C(=O)OC2COC2)c(C)c1 [b-196]
≥ 75%: inhibition of growth at 25 ppm (Botrytis cinerea [1]) | inhibition of growth at 25 ppm (Fusarium graminearum) | pest or weed control at 25 ppm (Botrytis cinerea [2]) | pest or weed control at 125 ppm (Botrytis cinerea [2]) | pest or weed control at 125 ppm (Venturia inaequalis) | pest or weed control at 125 ppm [3] | inhibition of growth at 25 ppm (Colletotrichum acutatum) | inhibition of growth at 25 ppm (Glomerella cingulata)

COC(=O)N(Cc1ccc(C)cc1C)NC(=O)c1c(F)cncc1Oc1cccc(C2CC2)c1F [b-199]
≥ 75%: inhibition of growth at 25 ppm (Botrytis cinerea [1]) | inhibition of growth at 25 ppm (Fusarium graminearum) | pest or weed control at 25 ppm (Botrytis cinerea [2]) | pest or weed control at 125 ppm (Botrytis cinerea [2]) | pest or weed control at 125 ppm (Venturia inaequalis) | pest or weed control at 125 ppm [3] | inhibition of growth at 25 ppm (Colletotrichum acutatum) | inhibition of growth at 25 ppm (Glomerella cingulata)

COC(=O)N(Cc1ccc(OC)cc1C)NC(=O)c1c(F)cncc1Oc1cccc(Cl)c1F [b-202]
≥ 75%: inhibition of growth at 25 ppm (Botrytis cinerea [1]) | inhibition of growth at 25 ppm (Fusarium graminearum) | pest or weed control at 25 ppm (Botrytis cinerea [2]) | pest or weed control at 125 ppm (Botrytis cinerea [2]) | pest or weed control at 125 ppm (Venturia inaequalis) | pest or weed control at 125 ppm [3] | inhibition of growth at 25 ppm (Colletotrichum acutatum) | inhibition of growth at 25 ppm (Glomerella cingulata)

COC(=O)N(Cc1ccc(C)cc1C)NC(=O)c1cc(C(F)(F)F)ncc1Oc1cccc(C2CC2)c1F [b-204]
≥ 75%: inhibition of growth at 25 ppm (Botrytis cinerea [1]) | inhibition of growth at 25 ppm (Fusarium graminearum) | pest or weed control at 25 ppm (Botrytis cinerea [2]) | pest or weed control at 125 ppm (Botrytis cinerea [2]) | pest or weed control at 125 ppm (Venturia inaequalis) | pest or weed control at 125 ppm [3] | inhibition of growth at 25 ppm (Colletotrichum acutatum) | inhibition of growth at 25 ppm (Glomerella cingulata)

COC(=O)N(Cc1ccc(C)cc1C)NC(=O)c1c(OC)cncc1Oc1cccc(C2CC2)c1F [b-208]
≥ 75%: inhibition of growth at 25 ppm (Botrytis cinerea [1]) | inhibition of growth at 25 ppm (Fusarium graminearum) | pest or weed control at 25 ppm (Botrytis cinerea [2]) | pest or weed control at 125 ppm (Botrytis cinerea [2]) | pest or weed control at 125 ppm (Venturia inaequalis) | pest or weed control at 125 ppm [3] | inhibition of growth at 25 ppm (Colletotrichum acutatum) | inhibition of growth at 25 ppm (Glomerella cingulata)

CCc1cncc(Oc2cccc(C3CC3)c2F)c1C(=O)NN(Cc1ccc(C)cc1C)C(=O)OC [b-212]
≥ 75%: inhibition of growth at 25 ppm (Botrytis cinerea [1]) | inhibition of growth at 25 ppm (Fusarium graminearum) | pest or weed control at 25 ppm (Botrytis cinerea [2]) | pest or weed control at 125 ppm (Botrytis cinerea [2]) | pest or weed control at 125 ppm (Venturia inaequalis) | pest or weed control at 125 ppm [3] | inhibition of growth at 25 ppm (Colletotrichum acutatum) | inhibition of growth at 25 ppm (Glomerella cingulata)

COC(=O)N(Cc1ccc(C)cc1C)NC(=O)c1c(Oc2cccc(C3CC3)c2)cnnc1OC(C)C [b-223]
≥ 75%: inhibition of growth at 25 ppm (Botrytis cinerea [1]) | inhibition of growth at 25 ppm (Fusarium graminearum) | pest or weed control at 25 ppm (Botrytis cinerea [2]) | pest or weed control at 125 ppm (Botrytis cinerea [2]) | pest or weed control at 125 ppm (Venturia inaequalis) | pest or weed control at 125 ppm [3] | inhibition of growth at 25 ppm (Colletotrichum acutatum) | inhibition of growth at 25 ppm (Glomerella cingulata)

COC(=O)N(Cc1ccc(C)cc1C)NC(=O)c1c(Oc2cccc(Cl)c2F)nnc(Cl)c1C [b-227]
≥ 75%: inhibition of growth at 25 ppm (Botrytis cinerea [1]) | inhibition of growth at 25 ppm (Fusarium graminearum) | pest or weed control at 25 ppm (Botrytis cinerea [2]) | pest or weed control at 125 ppm (Botrytis cinerea [2]) | pest or weed control at 125 ppm (Venturia inaequalis) | pest or weed control at 125 ppm [3] | inhibition of growth at 25 ppm (Colletotrichum acutatum) | inhibition of growth at 25 ppm (Glomerella cingulata)

COC(=O)N(Cc1ccc(C)cc1C)NC(=O)c1c(C)cnnc1Oc1cccc(C2CC2)c1F [b-228]
≥ 75%: inhibition of growth at 25 ppm (Botrytis cinerea [1]) | inhibition of growth at 25 ppm (Fusarium graminearum) | pest or weed control at 25 ppm (Botrytis cinerea [2]) | pest or weed control at 125 ppm (Botrytis cinerea [2]) | pest or weed control at 125 ppm (Venturia inaequalis) | pest or weed control at 125 ppm [3] | inhibition of growth at 25 ppm (Colletotrichum acutatum) | inhibition of growth at 25 ppm (Glomerella cingulata)
